EC50 and IC50 data for 27 molecules are collected here from US8742123B2, “HIV integrase inhibitors from pyridoxine” (TaiMed Biologics, Inc., priority 2008, dated 2014).

Usually EC50 stands for the concentration that produces a half-maximal response. As a reminder, the IC50 is the midpoint of a concentration-inhibition curve.

The subject of one assay is wild type NL-4.3. Kind of assay: multi-cycle infection assay in MT-4 cells (MTT cytoprotection). The format is cell-based, HIV-1. Particulars: Human immunodeficiency virus 1, MT4, 144 h; MT-4 cells, wild type NL-4.3, 6 days, MTT; read-out: EC50 (nM) multi-cycle. Here is the method:
The antiviral efficacies of the integrase inhibitor compounds of the invention were evaluated based on EC50 measures obtained from two different in vitro HIV infection assay using cultured MT-4 cells: (1) a multi-cycle infection where cells were infected with wild type NL-4.3) and (2) a single-cycle infection where the cells were infected with a luciferase-bearing, envelope defective (env-) NL-4.3 virus pseudotyped with HIV-1 env (HXBc2.
The incubation period for the multi-cycle infection assay was 6 days. Cell viability (cytoprotection) and EC50 were determined using the colorimetric MTT assay (A. J. Japour et al, Antimicrobial Agents and Chemotherapy, 37, 1095-1101, 1993 and R. Pauwels et al. Journal of Virological Methods, 20, 309-321, 1988).

The test system of the next assay is HIV-1 isolate 91US005. The assay is described as follows: acute infection assay in PHA-stimulated PBMCs, supernatant RT activity. The format is cell-based. Particulars: Human immunodeficiency virus 1, PBMC, 144 h, HIV-1 isolate 91US005, 6 day incubation. Here is the method:
(§1) Acute infection assays using fresh human phytohemagglutinin (PHA)-stimulated peripheral blood mononuclear cells (PBMCs) were carried out. PBMCs were stimulated with IL-2 and infected with one of two wild-type drug-sensitive clinical HIV-1 isolates. The strains HIV-1 used for the infections, 91US005 (primary R5 strain of HIV-1) and 94US33931N, are both Group M, Subtype B viruses. Antiviral activity was determined as a reduction in supernatent reverse transcriptase (RT) activity after a 6 day incubation.

In the next assay the test system is HIV-1 isolate 94US33931N. The assay is described as above. The format is cell-based. Particulars: Human immunodeficiency virus 1, PBMC, 144 h, 6 day incubation. How it is done:
as §1

Assay [1] has as its target T1, recombinant HIV-1 integrase (Human immunodeficiency virus type 1 group M subtype B, UniProt P12497).
T1 construct: Recombinant integrase (250 ng/well) was assembled onto the immobilized donor oligonucleotide
The assay is described as follows: integrase strand transfer assay. The format is biochemical. Particulars: compounds added after assembly, 10% DMSO, read-out: ST IC50. How it is done: IC50 was determined for the compounds of the inventions based on data generated in strand transfer assays. The IC50 is a measure of the ability of the compounds tested to inhibit the integration of 3′-processed oligonucleotides by recombinant HIV-1 integrase.
Strand transfer assays were performed essentially as described in Hazuda, D. J.; Felock, P.; Hastings, J. C.; Pramanik, B.; Wolfe, A. J. Virol. 1997, 71, 7005-7011). Donor DNA (1.5 pmol/well), biotinylated on the 5′ end of the strand processed by integrase, was immobilized onto streptavidin-coated microtiter plates. Recombinant integrase (250 ng/well) was assembled onto the immobilized donor oligonucleotide in reaction buffer (20 mM Hepes, pH 7.6, 5 mM B-mercaptoethanol, 50 ug/mL bovine serum albumin) containing 30 mM MnCl2. Excess enzyme was removed, and the complexes were washed extensively prior to the addition of the target DNA substrate. The target DNA (0.75 pmoles/well) substrate was labeled on each 3′ end with FITC. After strand transfer, the FITC-labeled products were detected using an anti-FITC antibody conjugated with alkaline phosphatase (Roche) and a chemiluminescent substrate (Tropix CSPD with Sapphire II enhancer, Applied Biosystems). The assay was performed in a final concentration of 10% DMSO. To specifically evaluate inhibition of strand transfer, compounds were added after assembly, just prior to the addition of the target DNA.
The results of the integrase strand transfer assay are reported as IC50 values. IC50 values were determined using a sigmoidal dose-response equation. The formula used for calculating % inhibition was: % Inhibition=[1-(sample counts/average of positive control)]*100. […] Using GraphPad Prism or ActivityBase (IDBS) software IC50 was determined using following sigmoidal dose-response equation: Y=(A+((B−A)/(1+((C/X)^D))))

Some results are limits rather than exact numbers.

On to `O=C(NCc1ccc(Cl)c(Cl)c1)c1cnc(C(=O)NOCc2ccccc2)c(OCc2ccccc2)c1CO` [Example 15, N^2,3-bis(benzyloxy)-N^5-(3,4-dichlorobenzyl)-4-(hydroxymethyl)pyridine-2,5-dicarboxamide], for which the EC50 in the assay with wild type NL-4.3 was above 10000 nM.

Turning to `COc1ccc(CNC(=O)c2cnc(C(=O)NO)c(O)c2CO)cc1` [Example 6, N^2,3-dihydroxy-4-(hydroxymethyl)-N^5-(4-methoxybenzyl)pyridine-2,5-dicarboxamide], the EC50 in the assay on wild type NL-4.3 stood at 1000 nM.

`O=C(NCc1cc(F)cc(F)c1)c1cnc(C(=O)NO)c(O)c1CO` [Example 8, N^5-(3,5-difluorobenzyl)-N^2,3-dihydroxy-4-(hydroxymethyl)pyridine-2,5-dicarboxamide]: in the assay on wild type NL-4.3, the EC50 was above 10000 nM.

For `Cc1cn([C@H]2C[C@H](N=[N+]=[N-])[C@@H](CO)O2)c(=O)[nH]c1=O` [Retrovir (AZT), 3-Azido-3-deoxythymine (Zidovudine), reference compound], the EC50 with HIV-1 isolate 91US005 is 6 nM; in the assay on HIV-1 isolate 94US33931N, 3 nM.

Regarding `O=C(NCc1ccc(F)c(Cl)c1)c1cnc(C(=O)NOCc2ccccc2)c(OCc2ccccc2)c1CO` [Example 13, N^2,3-bis(benzyloxy)-N^5-(3-chloro-4-fluorobenzyl)-4-(hydroxymethyl)pyridine-2,5-dicarboxamide], the EC50 in the assay with wild type NL-4.3 is above 10000 nM.

For the molecule `O=C(NCc1ccc(F)c(Cl)c1)c1cnc(C(=O)NO)c(O)c1CO` [Example 14, N^5-(3-chloro-4-fluorobenzyl)-N2,3-dihydroxy-4-(hydroxymethyl)pyridine-2,5-dicarboxamide], in assay [1], the IC50 turned out to be 27 nM. Besides, the EC50 in the assay with wild type NL-4.3 was 123 nM.

In the case of `O=C(NO)c1ncc(COc2ccc(F)cc2)c(CO)c1O` [Example 28, 5-(4-Fluoro-phenoxymethyl)-3-hydroxy-4-hydroxymethyl-pyridine-2-carboxylic Acid Hydroxyamide], the half-maximal effective concentration (EC50) with wild type NL-4.3 stood at 186 nM.

Consider `O=C(NO)c1ncc(CS(=O)(=O)Cc2ccc(F)cc2)c(CO)c1O` [Example 71, 5-(4-Fluoro-phenylmethanesulfonylmethyl)-3-hydroxy-4-hydroxymethyl-pyridine-2-carboxylic Acid Hydroxyamide], for which, in the assay with wild type NL-4.3, the EC50 stood at 4.3 nM.

For `O=C(NO)c1ncc(CNCc2cc(F)cc(F)c2)c(CO)c1O` [Example 10, 5-((3,5-difluorobenzylamino)methyl)-N,3-dihydroxy-4-(hydroxymethyl)picolinamide], in the assay with wild type NL-4.3, the EC50 is above 10000 nM.

For the molecule `COC(=O)N(Cc1ccc(F)cc1)Cc1cnc(C(=O)NO)c(O)c1CO` [Example 65, (4-Fluoro-benzyl)-(5-hydroxy-6-hydroxycarbamoyl-4-hydroxymethyl-pyridin-3-ylmethyl)-carbamic Acid Methyl Ester], in the assay on wild type NL-4.3, the EC50 was above 10000 nM.

`O=C(Nc1ccc(F)cc1)Nc1cnc(C(=O)NO)c(O)c1CO` [Example 27, 5-[3-(4-Fluoro-phenyl)-ureido]-3-hydroxy-4-hydroxymethyl-pyridine-2-carboxylic Acid Hydroxyamide]: the EC50 in the assay with wild type NL-4.3 worked out at 1100 nM.

For the molecule `O=C(NO)c1ncc(CCc2ccc(F)cc2)c(CO)c1O` [Example 67, 5-[2-(4-Fluoro-phenyl)-ethyl]-3-hydroxy-4-hydroxymethyl-pyridine-2-carboxylic Acid Hydroxyamide], in the assay with wild type NL-4.3, the EC50 stood at 235 nM.

For the molecule `O=C(NCc1ccc(Cl)c(Cl)c1)c1cnc(C(=O)NO)c(O)c1CO` [Example 16, N^5-(3,4-dichlorobenzyl)-N^2,3-dihydroxy-4-(hydroxymethyl)pyridine-2,5-dicarboxamide], in the assay with wild type NL-4.3, the EC50 is 700 nM.

As for `O=C(NO)c1ncc(COCc2ccccc2)c(CO)c1O` [Example 18, 5-(Benzyloxymethyl)-N,3-dihydroxy-4-(hydroxymethyl)picolinamide], the IC50 in assay [1] amounted to 88 nM. Further, the EC50 in the assay with wild type NL-4.3 was determined as 86 nM.

For `O=C(NO)c1ncc(CNCc2ccc3c(c2)OCO3)c(CO)c1O` [Example 11, 5-((benzo[d][1,3]dioxol-5-ylmethylamino)methyl)-N,3-dihydroxy-4-(hydroxymethyl)picolinamide], the EC50 in the assay with wild type NL-4.3 was found to be 300 nM.

Turning to `O=C(Nc1cnc(C(=O)NO)c(O)c1CO)c1ccc(F)cc1` [Example 23, 5-(4-Fluoro-benzoylamino)-3-hydroxy-4-hydroxymethyl-pyridine-2-carboxylic Acid Hydroxyamide], the EC50 in the assay on wild type NL-4.3 amounted to 6300 nM.

Regarding `COc1ccc(CNC(=O)c2cnc(C(=O)NOCc3ccccc3)c(OCc3ccccc3)c2CO)cc1` [Example 5, N^2,3-bis(benzyloxy)-4-(hydroxymethyl)-N^5-(4-methoxybenzyl)pyridine-2,5-dicarboxamide], the EC50 in the assay on wild type NL-4.3 stood at 900 nM.

Turning to `O=C(NO)c1ncc(CNc2ccc(F)cc2)c(CO)c1O` [Example 21, 5-[(4-Fluoro-phenylamino)-methyl]-3-hydroxy-4-hydroxymethyl-pyridine-2-carboxylic Acid Hydroxyamide], the EC50 in the assay on wild type NL-4.3 is 4.3 nM.

With `COc1ccc(COCc2cnc(C(=O)NO)c(O)c2CO)cc1` [Example 17, N,3-Dihydroxy-4-(hydroxymethyl)-5-((4-methoxybenzyloxy)methyl)-picolinamide], the EC50 with wild type NL-4.3 was 2000 nM.

Regarding `Cc1c(C(=O)NCc2ccc(F)c(Cl)c2)cnc(C(=O)NO)c1O` [Example 74, 3-Hydroxy-4-methyl-pyridine-2,5-dicarboxylic Acid 5-(3-chloro-4-fluoro-benzylamide)2-hydroxyamide], in the assay on wild type NL-4.3, the EC50 was 267 nM.

As to `O=C(NO)c1ncc(CN(Cc2ccccc2)c2ccc(F)cc2)c(CO)c1O` [Example 25, 5-{[Benzyl-(4-fluoro-phenyl)-amino]-methyl}-3-hydroxy-4-hydroxymethyl-pyridine-2-carboxylic Acid Hydroxyamide], in the assay with wild type NL-4.3, the EC50 was found to be 175 nM.

On to `O=C(NO)c1ncc(CNCc2ccc(F)cc2)c(CO)c1O` [Example 9], for which, in the assay on wild type NL-4.3, the EC50 is 1000 nM.

On to `COc1ccc(COCc2cnc(C(=O)NO)c3c2COC(C)(C)O3)cc1` [Example 19, N-hydroxy-5-((4-methoxybenzyloxy)methyl)-2,2-dimethyl-4H-[1,3]dioxino[4,5-c]pyridine-8-carboxamide], for which the EC50 with wild type NL-4.3 was 5060 nM.

Turning to `O=C(NCc1ccc2c(c1)OCO2)c1cnc(C(=O)NO)c(O)c1CO` [Example 4, N^5-(benzo[d][1,3]dioxol-5-ylmethyl)-N2,3-dihydroxy-4-(hydroxymethyl)pyridine-2,5-dicarboxamide], the EC50 in the assay on wild type NL-4.3 is above 10000 nM.

For `O=C(NCc1cc(F)cc(F)c1)c1cnc(C(=O)NOCc2ccccc2)c(OCc2ccccc2)c1CO` [Example 7, N^2,3-bis(benzyloxy)-N^5-(3,5-difluorobenzyl)-4-(hydroxymethyl)pyridine-2,5-dicarboxamide], the EC50 with wild type NL-4.3 was found to be 1500 nM.

For the molecule `COCc1c(C(=O)N(C)Cc2ccc(F)cc2)cnc(C(=O)NO)c1O` [Example 12, N^5-(4-fluorobenzyl)-N2,3-dihydroxy-4-(methoxymethyl)-N^5-methylpyridine-2,5-dicarboxamide], the EC50 in the assay on wild type NL-4.3 stood at 14000 nM.

Turning to `O=C(NCc1ccc(F)c(F)c1)c1cnc(C(=O)NO)c(O)c1CO` [Example 20, N^5-(3,4-difluorobenzyl)-N^2,3-dihydroxy-4-(hydroxymethyl)pyridine-2,5-dicarboxamide], the EC50 in the assay on wild type NL-4.3 is 30 nM.
